Key:
[1] = target: T1, hRIPK1 (aa 1-375) fusion protein (Homo sapiens, UniProt Q13546); assay: ADP-Glo kinase assay: catalytic activity of RIPK1 (autophosphorylation, conversion of ATP to ADP); type: biochemical
T1 construct: hRIPK1 (aa 1-375) fusion protein
T1 sequence (Q13546 1-375): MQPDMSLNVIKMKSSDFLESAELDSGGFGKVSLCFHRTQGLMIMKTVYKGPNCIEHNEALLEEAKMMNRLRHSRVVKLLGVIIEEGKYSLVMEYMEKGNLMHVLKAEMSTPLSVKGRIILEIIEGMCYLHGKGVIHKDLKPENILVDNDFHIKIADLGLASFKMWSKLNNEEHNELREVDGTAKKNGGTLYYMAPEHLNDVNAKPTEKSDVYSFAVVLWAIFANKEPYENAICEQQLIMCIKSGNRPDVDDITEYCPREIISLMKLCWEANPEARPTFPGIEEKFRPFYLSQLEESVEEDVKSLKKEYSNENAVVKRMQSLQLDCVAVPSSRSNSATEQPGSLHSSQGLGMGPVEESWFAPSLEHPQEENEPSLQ
Method in brief: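 The readout was ADP-Glo luminescence after a 240 min rt autophosphorylation reaction with 50 μM ATP, following 30 min preincubation of 3.6 μg/ml hRIPK1 (aa 1-375) fusion with compound at 33300-1.69 nM final in 1% DMSO. Values came from Levenberg-Marquardt nonlinear fits.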

U937 cells = assay: Cellular assay in U937 cells: activity of RIPK1 inhibitors on TNFα/zVAD.fmk-induced cell death (necroptosis), CellTiter 96 AQueous (MTS) readout; type: cell-based; conditions: Homo sapiens, U-937
Method in brief: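 Necroptosis was measured by viable-cell MTS reduction (4 h, absorbance 490 nm) after overnight (18–24 h) 37° C culture. Cell suspensions of U937 cells carried TNFα (100 ng/ml) plus zVAD.fmk (50 μM) before compound was added. A 10-point curve (10 μM–0.26 nM or 1 μM–0.07 nM) was run in duplicate, normalised to the control lacking TNFα/zVAD.fmk.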

| SMILES | IC50 [1] [nM] | IC50 (U937 cells) [nM] |
| --- | --- | --- |
| Cc1ncc([C@@H]2CCON2C(=O)[C@H]2CC[C@H](Cc3ccc4ncnn4c3)CC2)cc1F [compound 337, trans-[(3S)-3-(5-fluoro-6-methylpyridin-3-yl)-1,2-oxazolidin-2-yl]-[4-([1,2,4]triazolo[1,5-a]pyridin-6-ylmethyl)cyclohexyl]methanone] | 26 | 31 |
| Cc1cc(C[C@H]2CC[C@H](C(=O)N3OCC[C@H]3c3csc(C)n3)CC2)c(C)cn1 [compound 366, trans-[4-(2,5-Dimethyl-pyridin-4-ylmethyl)-cyclohexyl]-[(S)-3-(2-methyl-thiazol-4-yl)-isoxazolidin-2-yl]-methanone] | 40 | 11 |
| NC(=O)c1cc2c(ccn2C[C@H]2CC[C@H](C(=O)N3OCC[C@H]3c3cc(F)cc(F)c3)CC2)cc1F [compound 77, trans-1-((4-((S)-3-(3,5-difluorophenyl)isoxazolidine-2-carbonyl)cyclohexyl)methyl)-5-fluoro-1H-indole-6-carboxamide] | 14 | 3 |
| N#Cc1cncc([C@@H]2CCON2C(=O)[C@H]2CC[C@H](Cn3cnc4cc(C#N)c(F)cc43)CC2)c1 [compound 65, trans-1-((4-((S)-3-(5-cyanopyridin-3-yl)isoxazolidine-2-carbonyl)cyclohexyl)methyl)-6-fluoro-1H-benzo[d]imidazole-5-carbonitrile] | 51 | 164 |
| Cn1nccc1C[C@H]1CC[C@H](C(=O)N2OCC[C@H]2c2cc(F)cc(F)c2)CC1 [compound 307, trans-[(3S)-3-(3,5-difluorophenyl)isoxazolidin-2-yl]-[4-[(2-methylpyrazol-3-yl)methyl]cyclohexyl]methanone] | 15 | 2 |
| Cn1cncc1C[C@H]1CC[C@H](C(=O)N2OCC[C@H]2c2cc(F)cc(C#N)c2)CC1 [compound 167, trans-3-fluoro-5-[(3S)-2-[4-[(3-methylimidazol-4-yl)methyl]cyclohexanecarbonyl]isoxazolidin-3-yl]benzonitrile] | 104 | 100 |
| Cc1ccc([C@@H]2CCON2C(=O)[C@H]2CC[C@H](Cc3cnn4cc(C)nc4c3)CC2)cn1 [compound 353, trans-[4-[(2-methylimidazo[1,2-b]pyridazin-7-yl)methyl]cyclohexyl]-[(3S)-3-(6-methylpyridin-3-yl)-1,2-oxazolidin-2-yl]methanone] | 87 | 112 |
| O=C1NCc2ccc(C[C@H]3CC[C@H](C(=O)N4OCC[C@H]4c4cncc(F)c4)CC3)cc21 [compound 155, trans-6-[[4-[(3S)-3-(5-fluoro-3-pyridyl)isoxazolidine-2-carbonyl]cyclohexyl]methyl]isoindolin-1-one] | 15 | 19 |
| CNC(=O)c1ccc(F)c(C[C@H]2CC[C@H](C(=O)N3OCC[C@H]3c3cc(F)cc(F)c3)CC2)c1 [compound 174, trans-3-[[4-[(3S)-3-(3,5-difluorophenyl)isoxazolidine-2-carbonyl]cyclohexyl]methyl]-4-fluoro-N-methyl-benzamide] | 19 | 4 |
| N#Cc1cc(F)cc([C@@H]2CCON2C(=O)[C@H]2CC[C@H](Cc3cc(F)c4ncnn4c3)CC2)c1 [compound 206, trans-3-fluoro-5-[(3S)-2-[4-[(8-fluoro-[1,2,4]triazolo[1,5-a]pyridin-6-yl)methyl]cyclohexanecarbonyl]isoxazolidin-3-yl]benzonitrile] | 16 | 9 |
| Cc1cn2cc(C[C@H]3CC[C@H](C(=O)N4OCC[C@H]4c4cnccn4)CC3)cc(F)c2n1 [compound 350, trans-[4-(8-Fluoro-2-methyl-imidazo[1,2-a]pyridin-6-ylmethyl)-cyclohexyl]-((S)-3-pyrazin-2-yl-isoxazolidin-2-yl)-methanone] | 63 | 34 |
| Cc1nc2ccc(C[C@H]3CC[C@H](C(=O)N4OCC[C@H]4c4cc(F)cc(F)c4)CC3)nn2n1 [compound 315, [(3S)-3-(3,5-difluorophenyl)-1,2-oxazolidin-2-yl]-[4-[(2-methyl-[1,2,4]triazolo[1,5-b]pyridazin-6-yl)methyl]cyclohexyl]methanone] | 10 | 20 |

More lines, main results first:

| IC50 [1] [nM] | SMILES | IC50 (U937 cells) [nM] |
| --- | --- | --- |
| 15 | Cc1ncc([C@@H]2CCON2C(=O)[C@H]2CC[C@H](Cc3ccnn3C)CC2)cc1F [compound 404, trans-[(3S)-3-(5-fluoro-6-methylpyridin-3-yl)-1,2-oxazolidin-2-yl]-[4-[(2-methylpyrazol-3-yl)methyl]cyclohexyl]methanone] | 22 |
| 12 | N#Cc1cc(F)cc([C@@H]2CCON2C(=O)[C@H]2CC[C@H](Cc3ccc(F)c(C(N)=O)c3)CC2)c1 [compound 195, trans-5-[[4-[(3S)-3-(3-cyano-5-fluoro-phenyl)isoxazolidine-2-carbonyl]cyclohexyl]methyl]-2-fluoro-benzamide] | 6 |
| 41 | Cc1cc([C@@H]2CCON2C(=O)[C@H]2CC[C@H](Cn3cnc4cc(C#N)c(F)cc43)CC2)co1 [compound 40, trans-6-fluoro-1-((4-((S)-3-(5-methylfuran-3-yl)isoxazolidine-2-carbonyl)cyclohexyl)methyl)-1H-benzo[d]imidazole-5-carbonitrile] | 59 |
| 31 | Cc1cnc([C@@H]2CCON2C(=O)[C@H]2CC[C@H](Cc3cc(F)cnc3C)CC2)cn1 [compound 316, trans-[4-[(5-fluoro-2-methyl-3-pyridyl)methyl]cyclohexyl]-[(3S)-3-(5-methylpyrazin-2-yl)isoxazolidin-2-yl]methanone] | 27 |
| 43 | Cc1ncc(C[C@H]2CC[C@H](C(=O)N3OCC[C@H]3c3cnc(C)c(F)c3)CC2)cn1 [compound 343, trans-[(3S)-3-(5-fluoro-6-methylpyridin-3-yl)-1,2-oxazolidin-2-yl]-[4-[(2-methylpyrimidin-5-yl)methyl]cyclohexyl]methanone] | 21 |
| 97 | Cc1ccc(C[C@H]2CC[C@H](C(=O)N3OCC[C@H]3c3cnc(C)c(F)c3)CC2)nn1 [compound 388, trans-[(3S)-3-(5-fluoro-6-methylpyridin-3-yl)-1,2-oxazolidin-2-yl]-[4-[(6-methylpyridazin-3-yl)methyl]cyclohexyl]methanone] | 176 |
| 25 | Cc1cnc([C@@H]2CCON2C(=O)[C@H]2CC[C@H](Cc3cc(C)ncc3C)CC2)cn1 [compound 339, trans-[4-[(2,5-dimethylpyridin-4-yl)methyl]cyclohexyl]-[(3S)-3-(5-methylpyrazin-2-yl)-1,2-oxazolidin-2-yl]methanone] | 16 |
| 17 | Cn1nccc1C[C@H]1CC[C@H](C(=O)N2OCC[C@H]2c2ccc(F)cc2)CC1 [compound 306, trans-[(3S)-3-(4-fluorophenyl)isoxazolidin-2-yl]-[4-[(2-methylpyrazol-3-yl)methyl]cyclohexyl]methanone] | 25 |
| 37 | Cc1cn2ncc(C[C@H]3CC[C@H](C(=O)N4OCC[C@H]4c4cccc(C#N)c4)CC3)cc2n1 [compound 322, [2-cyano-4-[(3S)-2-[4-[(2-methylimidazo[1,2-b]pyridazin-7-yl)methyl]cyclohexanecarbonyl]isoxazolidin-3-yl]phenyl]] | 27 |
